{
  "source": "patent US11084852B2",
  "about": "“Ubiquitin interacting motif peptides as therapeutics” (OKLAHOMA MEDICAL RESEARCH FOUNDATION, priority 2015, dated 2021)",
  "key": {"[1]": {"tested_on": "Lewis lung carcinoma (LLC) tumors", "assay": "Subcutaneous LLC tumor model", "set-up": "species or system mice", "conditions": "mouse, in vivo", "description": "C56BL/6 mice and TRAMP prostate cancer models were obtained from Jackson Laboratory. SCID/NOD immune-deficient mice were purchased from Charles River Labs (Wilmington, Mass.). WT-Flk, EC-iDKO, EC-iDKO-Flk and EC-iDKO-Notch mice were generated by crossing conditional double knockout mice (EC-iDKO) with Flk-1^fl/fl or NICD^LSL mice as described in (FIGS. 13A-D) (Pasula et al., 2012; Tessneer et al., 2014). All animal protocols have been approved by the IACUC in Oklahoma Medical Research Foundation. Animal tumor models were established as follows: • (1) Subcutaneous Tumor Models (LLC, melanoma B16 and glioma U87/SCID): LLC, melanoma and glioma tumor models were established as previously described (Pasula et al., 2012). Synthetic peptides were administered at 10 mg/kg intravenously every second day beginning after small tumors were established (20-50 mm^3; approximately 12 days post implantation). Tumor volumes were monitored every other day until euthanized following IACUC tumor scoring system. • (2) TRAMP Prostate Tumor Model (Transgenic Adenocarcinoma of Mouse Prostate). […] Mortality rates were recorded. Prostate tumors were analyzed by weighing genitourinary tract (GU), H&E staining, IHC, IF staining and Western blotting as previously described (Pasula et al., 2012; Tessneer et al., 2013). Lymph nodes, lung, liver, spleen and bones were similarly analyzed for metastasis. • (3) B16 Melanoma Metastasis Model. […] Mice were sacrificed after 5 weeks and tissues (including lung, liver and lymph nodes, etc.) were harvested and analyzed for metastasis by gross morphology, H&E, IHC or IF staining, as well as Western blotting. • (4) Orthotopical Glioma Tumor Models (U87/SCID and GL261/C56BL/6). […] Tumors were monitored by MRI as previously described (Pasula et al., 2012). […] Tumor volume was analyzed by MRI every other day until the mice died or were euthanized following IACUC tumor scoring system. Mortality rates were recorded. […]"}, "EGFR": {"target": "T1, EGFR (Mus musculus, UniProt Q01279)", "T1 construct": "from tissue; host or cells: LLC or GL261 glioma subcutaneous tumors from C57BL/6 mice", "assay": "Biochemical pulldown assay using ex vivo tumors", "format": "binding, mice", "conditions": "biotinylated peptide, ex vivo tumor lysates", "method": "(§1) (FIGS. 15A and 15C) LLC (FIG. 15A) or Glioma GL261 (FIG. 15C) subcutaneous tumors removed from C57BL/6 mice were homogenized in lysis buffer containing 50 mM Tris-HCl pH 7.5, 150 mM NaCl, 0.05% NP-40, 10% glycerol, 1× cocktail (Roche) and 20 mM NEM (N-ethylmaleimide). Lysate protein concentration was determined by BCA kit (Pierce). 2 mg of total lysate was co-incubated with 50 μg of either biotinylated UPI peptide, UPI mutant (UPI-Mut) peptide or control peptide. Neutri-Avidin beads (Invitrogen) were then added to pulldown biotinylated UPI or control peptide. These beads were subjected to two washes with lysis buffer and two washes with ½ lysis solutions. Afterwards, beads were boiled in 2× loading buffer and the supernatant was used for Western blot analysis of VEGFR2, PDGFR-β, EGFR and FGFR1; (FIGS. 15B and 15D) Quantification of peptide pulldown of VEGFR2 in LLC (FIG. 15B) and Glioma GL261 (FIG. 15D) tumors, n=5; P values are indicated in the figures.\n(§2) LLC or GL261 glioma tumors was homogenized in lysis buffer containing 50 mM Tris-HCl pH7.5, 150 mM NaCl, 0.05% NP-40, 10% Glycerol, 1× cocktail, and 20 mM NEM. Protein concentration was determined by BCA kit (Pierce). 0.5-2 mg lysates were co-incubated with 100 μM biotinylated UPI or control peptides, followed by the addition of Neutri-Avidin beads (Invitrogen) for pulldown binding assay. Beads were washed twice with lysis buffer, then twice with 1:1 lysis buffer PBS. Beads were then boiled for 5 min in 2× sample loading buffer. Denatured proteins were subjected to Western blotting using anti-VEGFR2, anti-EGFR, anti-FGFR1 and anti-PDGFR-β antibodies."}, "FGFR1": {"target": "T2, FGFR1 (Mus musculus, UniProt P16092)", "T2 construct": "from tissue; host or cells: LLC or GL261 glioma subcutaneous tumors from C57BL/6 mice", "T2 sequence (P16092 22-822)": "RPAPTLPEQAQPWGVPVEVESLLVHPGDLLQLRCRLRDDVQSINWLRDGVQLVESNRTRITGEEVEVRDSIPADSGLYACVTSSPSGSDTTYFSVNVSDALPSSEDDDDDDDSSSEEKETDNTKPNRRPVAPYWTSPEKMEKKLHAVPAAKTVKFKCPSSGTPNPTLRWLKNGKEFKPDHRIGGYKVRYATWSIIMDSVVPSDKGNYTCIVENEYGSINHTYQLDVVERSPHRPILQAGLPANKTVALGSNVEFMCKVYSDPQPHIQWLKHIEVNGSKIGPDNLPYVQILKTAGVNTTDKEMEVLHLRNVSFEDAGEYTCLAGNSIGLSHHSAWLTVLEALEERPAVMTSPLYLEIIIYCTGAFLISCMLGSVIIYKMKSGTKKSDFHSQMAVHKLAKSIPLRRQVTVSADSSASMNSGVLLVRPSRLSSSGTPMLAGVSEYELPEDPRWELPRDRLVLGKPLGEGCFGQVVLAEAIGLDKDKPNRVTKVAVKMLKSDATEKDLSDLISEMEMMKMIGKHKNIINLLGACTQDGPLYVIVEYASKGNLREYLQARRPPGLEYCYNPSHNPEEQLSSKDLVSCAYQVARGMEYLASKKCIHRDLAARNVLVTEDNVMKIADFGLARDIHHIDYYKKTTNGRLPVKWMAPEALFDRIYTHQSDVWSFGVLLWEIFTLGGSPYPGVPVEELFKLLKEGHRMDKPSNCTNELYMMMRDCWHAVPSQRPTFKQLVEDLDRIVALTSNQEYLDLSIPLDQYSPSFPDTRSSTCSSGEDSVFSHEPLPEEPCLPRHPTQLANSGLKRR", "assay": "Biochemical pulldown assay using ex vivo tumors", "format": "binding, mice", "conditions": "biotinylated peptide, ex vivo tumor lysates", "method": "as §1, §2"}, "PDGFR-β": {"target": "T3, PDGFR-β (Mus musculus, UniProt P05622)", "T3 construct": "from tissue; host or cells: LLC or GL261 glioma subcutaneous tumors from C57BL/6 mice", "T3 sequence (P05622 32-1098)": "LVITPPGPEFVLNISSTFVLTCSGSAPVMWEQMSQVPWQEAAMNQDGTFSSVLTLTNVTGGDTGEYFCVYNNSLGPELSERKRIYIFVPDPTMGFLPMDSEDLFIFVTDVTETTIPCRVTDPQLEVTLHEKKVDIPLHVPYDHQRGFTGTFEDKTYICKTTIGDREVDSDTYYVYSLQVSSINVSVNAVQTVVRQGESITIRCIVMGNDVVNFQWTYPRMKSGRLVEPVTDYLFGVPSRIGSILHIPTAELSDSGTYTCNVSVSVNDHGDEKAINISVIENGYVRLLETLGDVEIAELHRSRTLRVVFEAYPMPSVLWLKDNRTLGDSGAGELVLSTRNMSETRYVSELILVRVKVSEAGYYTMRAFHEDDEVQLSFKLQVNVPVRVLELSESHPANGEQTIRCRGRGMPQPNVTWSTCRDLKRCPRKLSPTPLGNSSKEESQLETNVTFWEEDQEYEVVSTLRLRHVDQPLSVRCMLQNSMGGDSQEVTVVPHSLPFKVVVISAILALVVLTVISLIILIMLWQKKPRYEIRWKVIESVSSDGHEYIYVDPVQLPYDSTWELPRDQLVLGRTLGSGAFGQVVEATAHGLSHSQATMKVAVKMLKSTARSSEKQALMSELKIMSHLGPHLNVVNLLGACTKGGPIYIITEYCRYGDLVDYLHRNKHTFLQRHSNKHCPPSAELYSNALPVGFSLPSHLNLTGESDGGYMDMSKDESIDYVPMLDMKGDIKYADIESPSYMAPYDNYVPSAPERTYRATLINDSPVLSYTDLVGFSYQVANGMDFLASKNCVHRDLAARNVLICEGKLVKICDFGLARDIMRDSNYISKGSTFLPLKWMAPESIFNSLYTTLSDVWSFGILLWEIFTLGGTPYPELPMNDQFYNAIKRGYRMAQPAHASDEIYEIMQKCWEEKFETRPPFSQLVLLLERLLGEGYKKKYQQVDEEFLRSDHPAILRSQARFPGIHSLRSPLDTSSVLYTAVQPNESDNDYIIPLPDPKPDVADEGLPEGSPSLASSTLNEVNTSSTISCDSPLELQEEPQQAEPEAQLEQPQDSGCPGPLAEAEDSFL", "assay": "Biochemical pulldown assay using ex vivo tumors", "format": "binding, mice", "conditions": "biotinylated peptide, ex vivo tumor lysates", "method": "as §1, §2"}, "VEGFR2": {"target": "T4, VEGFR2 (Mus musculus, UniProt P35918)", "T4 construct": "from tissue; host or cells: LLC or GL261 glioma subcutaneous tumors from C57BL/6 mice", "T4 sequence (P35918 20-1345)": "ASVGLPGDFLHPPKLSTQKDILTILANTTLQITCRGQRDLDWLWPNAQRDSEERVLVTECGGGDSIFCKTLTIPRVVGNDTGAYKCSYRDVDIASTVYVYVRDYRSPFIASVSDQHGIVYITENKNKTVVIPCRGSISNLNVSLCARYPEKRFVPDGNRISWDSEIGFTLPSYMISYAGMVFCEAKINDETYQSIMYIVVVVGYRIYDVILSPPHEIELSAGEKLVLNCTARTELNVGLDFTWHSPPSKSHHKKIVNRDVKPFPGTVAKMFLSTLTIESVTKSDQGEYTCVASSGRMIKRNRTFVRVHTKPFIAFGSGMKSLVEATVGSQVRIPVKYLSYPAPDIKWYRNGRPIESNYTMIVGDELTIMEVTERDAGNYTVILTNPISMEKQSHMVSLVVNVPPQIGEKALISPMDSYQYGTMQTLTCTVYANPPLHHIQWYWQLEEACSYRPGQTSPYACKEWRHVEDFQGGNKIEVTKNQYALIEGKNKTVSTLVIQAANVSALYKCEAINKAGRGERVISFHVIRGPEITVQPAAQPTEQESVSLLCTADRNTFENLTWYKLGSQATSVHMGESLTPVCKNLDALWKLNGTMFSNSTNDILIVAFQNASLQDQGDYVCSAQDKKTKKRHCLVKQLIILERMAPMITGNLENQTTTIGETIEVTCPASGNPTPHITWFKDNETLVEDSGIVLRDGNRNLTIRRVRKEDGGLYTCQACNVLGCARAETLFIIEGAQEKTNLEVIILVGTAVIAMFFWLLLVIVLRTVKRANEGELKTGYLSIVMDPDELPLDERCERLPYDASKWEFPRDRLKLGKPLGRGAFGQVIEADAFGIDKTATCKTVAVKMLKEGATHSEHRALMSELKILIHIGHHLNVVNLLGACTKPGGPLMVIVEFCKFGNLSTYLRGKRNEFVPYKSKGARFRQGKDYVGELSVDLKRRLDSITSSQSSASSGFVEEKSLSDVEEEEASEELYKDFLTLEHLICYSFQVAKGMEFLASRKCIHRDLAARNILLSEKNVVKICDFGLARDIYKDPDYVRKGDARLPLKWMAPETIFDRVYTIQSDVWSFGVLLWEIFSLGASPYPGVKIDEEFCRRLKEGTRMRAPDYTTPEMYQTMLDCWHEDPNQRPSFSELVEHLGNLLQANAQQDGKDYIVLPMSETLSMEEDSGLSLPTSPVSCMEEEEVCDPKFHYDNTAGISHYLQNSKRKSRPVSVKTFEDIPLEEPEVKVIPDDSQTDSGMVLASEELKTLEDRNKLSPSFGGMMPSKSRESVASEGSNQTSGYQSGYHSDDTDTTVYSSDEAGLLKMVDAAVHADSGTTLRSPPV", "assay": "Biochemical pulldown assay using ex vivo tumors", "format": "binding, mice", "conditions": "biotinylated peptide, ex vivo LLC or GL261 tumor lysates", "method": "as §1, §2"}, "[2]": {"conditions": "in vivo; cited from earlier work"}, "[3]": {"conditions": "free acid; cited from earlier work"}, "[4]": {"assay": "HFD-induced obesity model", "format": "in vivo", "conditions": "i.p., mice fed HFD", "description": "FIGS. 33A-C. […] (FIG. 33A) Male and (FIG. 33B) Female mice, n=8 in each group; P<0.001. (FIG. 33C) Representative image of PBS or AP-UIM peptide administration for 3 months.\nThe inventors have tested a UIM peptide (AP-UIM) in HFD-induced obesity model."}, "ER stress": {"tested_on": "ER stress", "assay": "ER stress and inflammation after IP3R1 downregulation", "format": "cell-based", "description": "FIGS. 22A-D. Downregulation of IP3R1 by epsins augments ER stress-mediated inflammation in Endothelium. (FIG. 22A) Deletion of IP3R1 auguments ER stress mediated by athero-prone substances. (FIG. 22B) Inhibition of ER stress by 4-PBA protected athero-prone substances mediated ER stress due to loss of IP3R1. (FIG. 22C) Loss of epsins auguments NF-kB signaling. (FIG. 22D) NF-kB augmentation can be prevented by ER stress inhibitor 4-PBA."}},
  "note": "Positions of bridges follow the written chain, without caps; N, C: chain ends. Non-standard residues stand in square brackets, D forms with d. No end group written: not given here.",
  "data": [
    {"compound": "UPI-Mut: UPI bearing the Q9A/A13S/K16A triple mutation in the epsin UIM, SEQ ID NO: 43 ([dS]G[dE][dE][dE][dL][dQ][dL][dA][dL][dA][dL][dS][dM][dS][dA][dE][dE][dM]G[dC][dI][dK][dS][dK][dR][dK][dC][dR]G[dD][dK]G[dP][dD][dC]; disulfide 28-36 (inferred); not fully specified)", "values": [
      {"measurement": "tumor growth in LLC tumor-bearing mice, variant peptides", "setting": "[1]", "value": "failed to inhibit tumor growth compared to mice treated with UPI peptide"},
      {"measurement": "co-precipitation of EGFR", "setting": "EGFR", "value": "neither UPI nor UPI-Mut peptide pulled down"},
      {"measurement": "co-precipitation of FGFR1", "setting": "FGFR1", "value": "neither UPI nor UPI-Mut peptide pulled down"},
      {"measurement": "co-precipitation of PDGFR-β", "setting": "PDGFR-β", "value": "neither UPI nor UPI-Mut peptide pulled down"},
      {"measurement": "binding to VEGFR2 in pulldown", "setting": "VEGFR2", "value": "exhibited reduced binding to VEGFR2"}
    ]},
    {"compound": "CC(C)(C)[N+]([O-])=Cc1ccc(S(=O)(=O)O)cc1S(=O)(=O)O", "note": "[2,4-ds PBN, 2,4-disulfonyl phenyl-tert-butyl nitrone]", "values": [
      {"measurement": "efficacy compared to PBN", "setting": "[2]", "value": "unexpected increase in efficacy as compared to PBN"},
      {"measurement": "toxicity compared to PBN", "setting": "[2]", "value": "marked and highly significant decrease in toxicity as compared to PBN"},
      {"measurement": "solubility in water", "setting": "[3]", "value": "greater than 1 gram/ml"}
    ]},
    {"compound": "AP-UIM: Antennapedia (penetratin) conjugated to the N-terminus of the epsin UIM peptide, SEQ ID NO: 40 (RQIKIWFQNRRMKWKKSGEEELQLQLALAMSKEE; not fully specified (some residues))", "values": [
      {"measurement": "body weight gain", "setting": "[4]", "value": "significantly attenuated body weight gain"}
    ]},
    {"compound": "O=C(O)CCCc1ccccc1", "note": "[4-PBA]", "values": [
      {"measurement": "ER stress and inflammation", "setting": "ER stress", "value": "inhibits ER stress and inflammation"}
    ]}
  ]
}
